Results reported in patent US20250241893A1, “TREATMENT OF COGNITIVE DYSFUNCTION” (GH RESEARCH IRELAND LIMITED, priority 2022, published 2025).

Key:
[1] = tested on: patients with treatment-resistant major depressive disorder (TRD); assay: Phase 1/2 clinical trial of inhaled 5-MeO-DMT in TRD; conditions: for Patients with at least one ADR: Part A, n=4, all mild, resolved spontaneously
Procedure: Patients were assigned to different groups. In the context of the present invention, the group who received a single, 12 mg dose and the group who underwent an intra-day individualized dosing regimen (IDR) that allowed for multiple, escalating doses (6 mg, 12 mg and 18 mg) within a single day, driven by the intensity of the patient-reported psychedelic experience are of interest.
The data gathered include the assessment of the treated patients against several scales including the Montgomery-Asberg Depression Rating Scale (MADRS) and the Brief Psychiatric Rating Scale (BPRS).
The MADRS item that is of particular relevance to impaired concentration and memory is “concentration difficulties”. This item represents difficulties in collecting one's thoughts mounting to incapacitating lack of concentration and is scored on a scale ranging from 0 to 6. The score is 0 if the patient has no difficulties in concentrating. The score is 2 in case of occasional difficulties in collecting one's thoughts. A score of 4 is assigned in case of difficulties in concentrating and sustaining thought which reduces ability to read or hold a conversation. The score is 6 if the patient is unable to read or converse without great difficulty.
The MADRS item “reduced sleep” represents the experience of reduced duration or depth of sleep compared to the subject's own normal pattern when well. A score of 0 is assigned when the subject sleeps as usual. […] A score of 4 means that sleep is reduced or broken by at least two hours. A score of 6 means less than two or three hours sleep.
This trial was designed in two parts. Part A was an open-label, single-arm, single-dose Phase 1 trial with two dose levels (12 mg (n=4) and 18 mg (n=4)). […] The primary endpoint of Part B was to assess the effects on the severity of depression, as assessed by the proportion of patients in remission on day seven after dosing, defined as a MADRS total score of less than or equal to 10.

[2] = Pharmacokinetics of 5-MeO-DMT and bufotenine after inhalation; assay type: in vivo, human; conditions: 3 hours after inhalation, whole dose range (6 mg, 12 mg, 18 mg)
Procedure: Blood samples were obtained at 1; 2; 4; 7; 10; 15; 20; 30; 45 min and 1; 1.5; 2; 3; 4 hours after administration. […] PK parameters were generated by algebraic analysis of the concentration versus time plots for each individual. The analysis was carried out using the software Phoenix WinNonlin 6.3.

[3] = 12 mg n=4, sum of patient scores, 2 hours after dose, baseline 16
[4] = 12 mg n=4, sum of patient scores, day 1, baseline 13
[5] = 12 mg n=4, sum of patient scores, day 1, baseline 16
[6] = 12 mg n=4, sum of patient scores, day 7, baseline 12
[7] = 12 mg n=4, sum of patient scores, day 7, baseline 13
[8] = 12 mg n=4, sum of patient scores, day 7, baseline 16
[9] = IDR n=8, sum of patient scores, day 1, baseline 25
[10] = IDR n=8, sum of patient scores, day 7, baseline 25
[11] = IDR n=8, sum of patient scores, day 7, baseline 30

COc1ccc2[nH]cc(CCN(C)C)c2c1 [5-MeO-DMT]
MADRS Suicidal Thoughts improvement ([1]; 12 mg n=4, sum of patient scores, 2 hours after dose, baseline 8): 5 | MADRS Inner Tension improvement ([1]; 12 mg n=4, sum of patient scores, 2 hours after dose, baseline 13): 11 | MADRS Concentration Difficulties improvement [1, 3]: 9 | MADRS Inability to Feel improvement [1, 3]: 7 | MADRS Lassitude improvement [1, 3]: 6 | MADRS Pessimistic Thoughts improvement [1, 3]: 8 | BPRS Blunted Affect improvement ([1]; 12 mg n=4, sum of patient scores, 3 hours after dose, baseline 11): 3 | BPRS Emotional Withdrawal improvement ([1]; 12 mg n=4, sum of patient scores, 3 hours after dose, baseline 13): 2 | BPRS Tension improvement ([1]; 12 mg n=4, sum of patient scores, 3 hours after dose, baseline 14): 5 | BPRS Guilt Feelings improvement ([1]; 12 mg n=4, sum of patient scores, 3 hours after dose, baseline 18): 9 | BPRS Anxiety improvement ([1]; 12 mg n=4, sum of patient scores, 3 hours after dose, baseline 25): 14 | MADRS Suicidal Thoughts improvement ([1]; 12 mg n=4, sum of patient scores, day 1, baseline 8): 3 | BPRS Blunted Affect improvement ([1]; 12 mg n=4, sum of patient scores, day 1, baseline 11): 5 | MADRS Reduced Sleep improvement ([1]; 12 mg n=4, sum of patient scores, day 1, baseline 12): 2 | BPRS Emotional Withdrawal improvement [1, 4]: 5 | MADRS Inner Tension improvement [1, 4]: 10 | BPRS Tension improvement ([1]; 12 mg n=4, sum of patient scores, day 1, baseline 14): 8 | MADRS Concentration Difficulties improvement [1, 5]: 14 | MADRS Inability to Feel improvement [1, 5]: 15 | MADRS Lassitude improvement [1, 5]: 16 | MADRS Pessimistic Thoughts improvement [1, 5]: 9 | BPRS Guilt Feelings improvement ([1]; 12 mg n=4, sum of patient scores, day 1, baseline 18): 13 | BPRS Anxiety improvement ([1]; 12 mg n=4, sum of patient scores, day 1, baseline 25): 19 | MADRS Suicidal Thoughts improvement ([1]; 12 mg n=4, sum of patient scores, day 7, baseline 8): 1 | BPRS Blunted Affect improvement ([1]; 12 mg n=4, sum of patient scores, day 7, baseline 11): 6 | MADRS Reduced Sleep improvement [1, 6]: 6 | MADRS Reduced Sleep percentage improvement [1, 6]: 50.00% | BPRS Emotional Withdrawal improvement [1, 7]: 7 | MADRS Inner Tension improvement [1, 7]: 8 | BPRS Tension improvement ([1]; 12 mg n=4, sum of patient scores, day 7, baseline 14): 8 | MADRS Concentration Difficulties improvement [1, 8]: 13 | MADRS Inability to Feel improvement [1, 8]: 15 | MADRS Lassitude improvement [1, 8]: 13 | MADRS Pessimistic Thoughts improvement [1, 8]: 8 | BPRS Guilt Feelings improvement ([1]; 12 mg n=4, sum of patient scores, day 7, baseline 18): 13 | BPRS Anxiety improvement ([1]; 12 mg n=4, sum of patient scores, day 7, baseline 25): 19 | MADRS Suicidal Thoughts improvement ([1]; IDR n=8, sum of patient scores, 2 hours after last dose, baseline 11): 8 | MADRS Inner Tension improvement ([1]; IDR n=8, sum of patient scores, 2 hours after last dose, baseline 26): 15 | MADRS Lassitude improvement ([1]; IDR n=8, sum of patient scores, 2 hours after last dose, baseline 27): 17 | MADRS Pessimistic Thoughts improvement ([1]; IDR n=8, sum of patient scores, 2 hours after last dose, baseline 28): 21 | MADRS Concentration Difficulties improvement ([1]; IDR n=8, sum of patient scores, 2 hours after last dose, baseline 30): 19 | MADRS Inability to Feel improvement ([1]; IDR n=8, sum of patient scores, 2 hours after last dose, baseline 36): 24 | BPRS Emotional Withdrawal improvement ([1]; IDR n=8, sum of patient scores, 3 hours after last dose, baseline 13): 5 | BPRS Blunted Affect improvement ([1]; IDR n=8, sum of patient scores, 3 hours after last dose, baseline 15): 4 | BPRS Tension improvement ([1]; IDR n=8, sum of patient scores, 3 hours after last dose, baseline 16): 5 | BPRS Guilt Feelings improvement ([1]; IDR n=8, sum of patient scores, 3 hours after last dose, baseline 34): 20 | BPRS Anxiety improvement ([1]; IDR n=8, sum of patient scores, 3 hours after last dose, baseline 37): 18 | MADRS Suicidal Thoughts improvement ([1]; IDR n=8, sum of patient scores, day 1, baseline 11): 10 | BPRS Emotional Withdrawal improvement ([1]; IDR n=8, sum of patient scores, day 1, baseline 13): 5 | BPRS Blunted Affect improvement ([1]; IDR n=8, sum of patient scores, day 1, baseline 15): 7 | BPRS Tension improvement ([1]; IDR n=8, sum of patient scores, day 1, baseline 16): 5 | MADRS Reduced Sleep improvement [1, 9]: 13 | MADRS Reduced Sleep percentage improvement [1, 9]: 52.00% | MADRS Inner Tension improvement ([1]; IDR n=8, sum of patient scores, day 1, baseline 26): 20 | MADRS Lassitude improvement ([1]; IDR n=8, sum of patient scores, day 1, baseline 27): 22 | MADRS Pessimistic Thoughts improvement ([1]; IDR n=8, sum of patient scores, day 1, baseline 28): 24 | MADRS Concentration Difficulties improvement ([1]; IDR n=8, sum of patient scores, day 1, baseline 30): 29 | BPRS Guilt Feelings improvement ([1]; IDR n=8, sum of patient scores, day 1, baseline 34): 23 | MADRS Inability to Feel improvement ([1]; IDR n=8, sum of patient scores, day 1, baseline 36): 34 | BPRS Anxiety improvement ([1]; IDR n=8, sum of patient scores, day 1, baseline 37): 21 | MADRS Suicidal Thoughts improvement ([1]; IDR n=8, sum of patient scores, day 7, baseline 11): 8 | BPRS Emotional Withdrawal improvement ([1]; IDR n=8, sum of patient scores, day 7, baseline 13): 5 | BPRS Blunted Affect improvement ([1]; IDR n=8, sum of patient scores, day 7, baseline 15): 7 | BPRS Tension improvement ([1]; IDR n=8, sum of patient scores, day 7, baseline 16): 6 | MADRS Reduced Sleep improvement [1, 10]: 16 | MADRS Reduced Sleep percentage improvement [1, 10]: 64.00% | MADRS Inner Tension improvement ([1]; IDR n=8, sum of patient scores, day 7, baseline 26): 14 | MADRS Lassitude improvement ([1]; IDR n=8, sum of patient scores, day 7, baseline 27): 24 | MADRS Pessimistic Thoughts improvement ([1]; IDR n=8, sum of patient scores, day 7, baseline 28): 25 | MADRS Concentration Difficulties improvement [1, 11]: 21 | MADRS Concentration Difficulties percentage improvement [1, 11]: 70.00% | BPRS Guilt Feelings improvement ([1]; IDR n=8, sum of patient scores, day 7, baseline 34): 24 | MADRS Inability to Feel improvement ([1]; IDR n=8, sum of patient scores, day 7, baseline 36): 30 | BPRS Anxiety improvement ([1]; IDR n=8, sum of patient scores, day 7, baseline 37): 20 | SAEs ([1]; Part A (12 mg and 18 mg)): No SAEs were reported | Patients with at least one ADR ([1]; 12 mg single dose): 3 of 4 | Patients with at least one ADR ([1]; 18 mg single dose): 3 of 4 | Detectability in the plasma [2]: no longer detectable
